Results taken from PMC12935787, “Clinical pharmacokinetics and pharmacometabolomics of Andrographis paniculata capsules: Bridging drug disposition and metabolic response to precision medicine” (Naunyn-Schmiedeberg's Archives of Pharmacology, 2025).
Where two headings read alike, the source gives them in different places.

Test: Clinical pharmacokinetics, plasma LC-MS/MS after single oral dose of AP capsules
Format: in vivo, human (healthy volunteers)
Conditions: human, plasma, oral, 2000 mg, 2000 mg AP capsules, read-out: Plasma concentration; for concentration at 0.5 h: 0.50 h; for concentration at 1.5 h: 1.50 h; for concentration at 2.5 h: 2.50 h; for concentration at 3.5 h: 3.50 h
Procedure: The protocol was published (Tee et al. [2022]).
Seven calibrators ranging from 1, 2, 5,10, 20, 50, and 100 ng mL^−1 were prepared. Frozen plasma was thawed, vortexed-mixes, and processed via protein precipitation: 50 µL plasma plus 100 µL 0.01% ammonia in methanol were vortexed (20 s), centrifuged (14800 rpm, 5 min) and […] supernatant was transferred to 2 mL vials with inserts. LC–MS/MS injection volume: 10 µL. The separation used a Phenomenex Gemini-NX C18 column (150 × 2.1 mm, 5 μm) with 0.01% ammonia (A) and acetonitrile/methanol (1:1, B) as mobile phases (0.30 mL min^-1). The gradient program: 40% B (0 min), linear increase to 95% B (3 min), hold to 5 min, sharp decrease to 10% B (5.01 min), hold to 7 min, return to 40% B (7.01 min), and re-equilibration to 10 min. Mass detection employed an LCMS-8060NX triple quadrupole with heated ESI in negative mode, monitoring specific MRM transitions: andrographolide (349.3 → 331.2/287.1), 14-deoxyandrographolide (331.2 → 108.0/301.1), and neoandrographolide (479.1 → 317.4/161.1).
Pharmacokinetic parameters were determined from plasma samples (5 subjects, 15 time points) analyzed via LC–MS/MS (Shimadzu 8060NX). […] Specific MRM transitions for andrographolide, 14-deoxyandrographolide, and neoandrographolide in plasma samples of subjects are illustrated in Figure S3. […] The dose-dependent concentration–time curves, pharmacokinetics profiles (Fig. 2a, b and c) and comprehensive individual PK data (Table S4) provide a foundation for developing personalized AP dosing regimens, supporting its precision medicine potential.

## C=C1CC[C@@H]2[C@](C)(CO)[C@H](O)CC[C@@]2(C)[C@@H]1C/C=C1/C(=O)OC[C@H]1O [andrographolide]
S1
  concentration at 0 h: 0 ng/mL
  concentration at 0.5 h: 3.76 ng/mL
  concentration at 1 h: 2.41 ng/mL
  concentration at 1.5 h: 6.36 ng/mL
  concentration at 2 h: 5.31 ng/mL
  concentration at 2.5 h: 2.17 ng/mL
  concentration at 3 h: 3.86 ng/mL
  concentration at 3.5 h: 2.81 ng/mL
  concentration at 4 h: 0 ng/mL
  concentration at 5 h: 0 ng/mL
  concentration at 6 h: 0 ng/mL
  concentration at 8 h: 0 ng/mL
  concentration at 10 h: 0 ng/mL
  concentration at 12 h: 0 ng/mL
  concentration at 24 h: 0 ng/mL
S2
  concentration at 0 h: 0 ng/mL
  concentration at 0.5 h: 0 ng/mL
  concentration at 1 h: 3.98 ng/mL
  concentration at 1.5 h: 5.56 ng/mL
  concentration at 2 h: 5.07 ng/mL
  concentration at 2.5 h: 3.13 ng/mL
  concentration at 3 h: 4.68 ng/mL
  concentration at 3.5 h: 0 ng/mL
  concentration at 4 h: 0 ng/mL
  concentration at 5 h: 0 ng/mL
  concentration at 6 h: 0 ng/mL
  concentration at 8 h: 0 ng/mL
  concentration at 10 h: 0 ng/mL
  concentration at 12 h: 0 ng/mL
  concentration at 24 h: 0 ng/mL
S3
  concentration at 0 h: 0 ng/mL
  concentration at 0.5 h: 39.4 ng/mL
  concentration at 1 h: 13.8 ng/mL
  concentration at 1.5 h: 14.2 ng/mL
  concentration at 2 h: 4.19 ng/mL
  concentration at 2.5 h: 3.47 ng/mL
  concentration at 3 h: 0 ng/mL
  concentration at 3.5 h: 0 ng/mL
  concentration at 4 h: 0 ng/mL
  concentration at 5 h: 0 ng/mL
  concentration at 6 h: 0 ng/mL
  concentration at 8 h: 0 ng/mL
  concentration at 10 h: 0 ng/mL
  concentration at 12 h: 0 ng/mL
  concentration at 24 h: 0 ng/mL
S4
  concentration at 0 h: 0 ng/mL
  concentration at 0.5 h: 0 ng/mL
  concentration at 1 h: 18.3 ng/mL
  concentration at 1.5 h: 22.1 ng/mL
  concentration at 2 h: 12.7 ng/mL
  concentration at 2.5 h: 5.06 ng/mL
  concentration at 3 h: 4.2 ng/mL
  concentration at 3.5 h: 2.09 ng/mL
  concentration at 4 h: 0 ng/mL
  concentration at 5 h: 0 ng/mL
  concentration at 6 h: 0 ng/mL
  concentration at 8 h: 0 ng/mL
